Results reported in US20220040280A1, “INHIBITORS AND USES THEREOF” (UNIVERSITY OF CANBERRA, priority 2016, published 2022).
Entries after “also recorded” stand apart in the source; their conditions may differ. Residues, ends and D or L forms follow the SMILES beside them. *: point of attachment. Myristoyl = CCCCCCCCCCCCCC(=O)*

Legend:
[1] = molecular target: T1, LSD1 phosphorylated at serine 111 (LSD1s111p) (Homo sapiens, UniProt O60341); experiment: Confocal microscopy of LSD1s111p in MCF7 cells treated with peptide inhibitors; assay type: cell-based; conditions: stimulated and non-stimulated MCF7 cells, relative to control, FIG. 4
T1 construct: endogenous in cells; host or cells: MCF7 (non-stimulated or PMA-stimulated) and MDA-MB-231 breast cancer cells
Method: (§1) Cells were probed with either rabbit antibodies to LSD1s111p (Merck ABE1462), EGFR (AB2430), MET (ab51067), PD-L1 (sc-50298), goat antibodies to PD-L1 (sc-19091), SC-14033), (sc-19096), mouse antibodies to Cytokeratin (Miltenyi 130-090-866), CSV (Abnova H00007431-M08), vimentin (SC-6260) followed by visualisation with secondary anti mouse Alexa-Fluor 568 (A10037), secondary anti rabbit Alexa-Fluor 488 (A21206) or secondary anti goat Alexa-Fluor 633 (A21082).
(§2) MDA-MB-231 or MCF7 cells were treated with one of L1, L2 or L3 and a control. Cells were then fixed with 3.7% formaldehyde and permeabilized with 2% Triton-X-100, then probed with a primary mouse antibody against LSD1 or a primary rabbit antibody against PD-L1, EGFR or MET, followed by visualization with a secondary goat antibody to mouse or rabbit immunoglobulins conjugated to Alexa-Fluor 488. Confocal laser scanning microscopy was used to measure the Fn/c (ratio of nuclear to cytoplasmic fluorescent intensity) ratio of LSD1 with Fiji-imageJ or the total nuclear fluorescence of PD-L1, EGFR or MET. Values are plotted with significant differences indicated using the Mann-Whitney T-test, with at least 20 cells counted per sample. Representative images for each treatment are shown.

[2] = molecular target: T1, LSD1 phosphorylated at serine 111 (LSD1s111p); experiment: Confocal microscopy of LSD1s111p in MDA-MB-231 cells treated with peptide inhibitors; assay type: cell-based; conditions: relative to control, FIG. 4
Method: as §1, §2

[3] = test system: PD-L1; experiment: Confocal microscopy of PD-L1 in MCF7 cells treated with peptide inhibitors; assay type: cell-based, human
Method: as §1, §2

[4] = test system: PD-L1; experiment: Confocal microscopy of PD-L1 in MDA-MB-231 cells treated with peptide inhibitors; assay type: cell-based, human
Method: as §1, §2

[5] = molecular target: T2, LSD1 (Homo sapiens, UniProt O60341); experiment: LSD1 nuclear translocation in MDA-MB-231 cells, confocal microscopy; assay type: cell-based; conditions: FIG. 19 and FIG. 31
T2 construct: endogenous in cells; host or cells: MCF7 (non-stimulated or PMA-stimulated) and MDA-MB-231 breast cancer cells
Method: as §2
Confocal laser scanning microscopy was performed on MDA-MB-231 cells treated with a LSD1 peptide inhibitor, L1, L2 or L3, or vehicle alone. Cells were fixed with 3.7% formaldehyde and permeabilized with 2% Triton-X-100, and then probed with a primary mouse antibody to LSD1, followed by the corresponding secondary antibody conjugated to Alexa-Fluor 488. Confocal laser scanning microscopy was used to determine the Fn/c ratio of LSD1 with image-J. Values are plotted with significant differences indicated. Data shown represent the mean±SE for at least 20 individual cells.

[6] = test system: EGFR; experiment: Confocal microscopy of EGFR in MDA-MB-231 cells treated with peptide inhibitors; assay type: cell-based, human; conditions: in comparison to control, FIG. 23
Method: as §2

[7] = test system: MET; experiment: Confocal microscopy of MET in MDA-MB-231 cells treated with peptide inhibitors; assay type: cell-based, human; conditions: in comparison to control, FIG. 24
Method: as §2

[8] = test system: MDA-MB-231 cells; conditions: 100 μM, FIG. 21
Method: 5×10^4 MCF7 or MDA-MB-231 cells were seeded with 1 mL of complete DMEM in 12 well plates overnight. […] Samples were harvested by trypsinisation followed by washing with DPBS containing 2% HI-FBS. FACS staining were performed using anti-human CD44-APC, anti-human CD24-PE, Hoechst, and anti-human EpCAM antibody cocktails. Data was collected from a BD FACSLSR-II flow cytometer. Treestar FlowJo was used for data analysis.

[9] = test system: PD-L1; experiment: FACS of PD-L1 in CD45-CK+ circulating tumor cells from patient liquid biopsies; assay type: cell-based, human; conditions: CD45-CK+ CTCs
Method: (§3) Isolated PBMCs and CTCs were stained with CD45−APC, pan-cytokeratin (CK)-FITC, EpCAM-Percp-Cy5.5 and PD-L1-BV421 antibodies. Co-cultured MDA-MB-231 cells were stained with CD44, CD24 and PD-L1. Flow cytometric analysis was performed on single cell suspensions for using the BD LSR II Flow Cytometer.

[10] = test system: MDA-MB-231 breast cancer cells; experiment: Flow cytometry of stimulated MDA-MB-231 cells (PD-L1, CD44, CD24); assay type: cell-based, human
Method: MCF7 and MDA-MB-231 cells were obtained from the American Type Culture Collection (Manassas, Va.). Cells were cultured in DMEM (Invitrogen, Life Technologies, Carlsbad, Calif.) supplemented with 10% FBS, 2 mM L-glutamine, and 1% penicillin-streptomycin-neomycin. MCF7 cells were stimulated with 1.32 ng/ml phorbol 12-myristate 13-acetate (PMA) (Sigma-Aldrich, St Louis, Mo.) or 5 ng/ml recombinant TGF-β1 (R&D Systems, Minneapolis, Minn.) for 60 h. For the co-culture assay MDA-MB-231 cells were stimulated with Jurkat T-cells at defined ratios.
as §3

[11] = test system: MDA-MB-231 breast cancer cells; experiment: as above; assay type: cell-based, human; conditions: IFNγ 10 μg/mL, PMA 24 ng/mL, 24 or 48 hours
[12] = stimulated MDA-MB-231, 24 hours
[13] = stimulated MDA-MB-231, 48 hours

Q: What does the source list for CCCCCCCCCCCCCC(=O)N[C@@H](CCCNC(=N)N)C(=O)N[C@@H](Cc1c[nH]c2ccccc12)C(=O)N[C@@H](CCCNC(=N)N)C(=O)N[C@@H](CCCNC(=N)N)C(=O)N[C@H](C(=O)N[C@@H](C)C(=O)N[C@@H](CCCNC(=N)N)C(=O)N[C@@H](CCCNC(=N)N)C(=O)N[C@@H](CCCCN)C(=O)N[C@@H](CCCNC(=N)N)C(=O)N[C@@H](C)C(=O)N[C@@H](CCCCN)C(=O)N[C@H](C(=O)O)C(C)C)[C@@H](C)O [Peptide L3, Myristoyl-RWRRTARRKRAKV-OH] (Myristoyl-RWRRTARRKRAKV-OH)?
A: nuclear expression of LSD1s111p (TNFI) [1]: significantly abrogated; nuclear expression of LSD1s111p (TNFI) [2]: significantly abrogated; abrogation of nuclear PD-L1 expression ([3]; epithelial non-stimulated MCF7 cells, compared with stimulated cells): lessened; Fn/c ratio (nuclear bias) of PD-L1 ([3]; peptide treated MCF7 cells): strongly nuclear; cytoplasmic/surface expression of PD-L1 (TCFI) ([3]; stimulated MCF7 cells, FIG. 5): significantly inhibited; expression of nuclear PD-L1 (TNFI) ([3]; stimulated, mesenchymal MCF7 cells, FIG. 5): significantly abrogated; cytoplasmic/surface expression of PD-L1 (TCFI) ([4]; MDA-MB-231 cells, FIG. 6): significantly inhibited; expression of nuclear PD-L1 (TNFI) ([4]; MDA-MB-231 cells, FIG. 6): significantly abrogated; PD-L1 nuclear expression ([4]; MDA-MB-231 cells, in comparison to the control, FIG. 22 (50 μM and 100 μM)): abrogated; Fn/c ratio (nuclear bias) of PD-L1 ([4]; peptide treated MDA-MB-231 cells): strongly nuclear; nuclear translocation of LSD1 (Fn/c) [5]: inhibited; also recorded: clearly abrogated; EGFR nuclear expression (TNFI) [6]: reduction; MET nuclear expression (TNFI) [7]: significant abrogation; cancer stem cell formation [8]: significant reduction

Q: For CN(C)C(=O)c1cc2cnc(Nc3ccc(N4CCNCC4)cn3)nc2n1C1CCCC1 [Ribociclib], which “PD-L1 nuclear (nPD-L1) expression” value ([9]; Patient A, FIG. 18A) is on record?
A: greatest inhibition

Q: And the PD-L1 nuclear expression ([9]; Patient B, FIG. 18B)?
A: inhibited

Q: What about the PD-L1 surface/cytoplasmic expression ([9]; Patient B, FIG. 18B) of the same molecule?
A: inhibited

B1: IFNγ: interferon gamma used as stimulus (10 μg/mL) (protein, UniProt P01579 24-161, looked up)
Interferon gamma: QDPYVKEAENLKKYFNAGHSDVADNGTLFLGILKNWKEESDRKIMQSQIVSFYFKLFKNFKDDQSIQKSVETIKEDMNVKFFNSNKKKRDDFEKLTNYSVTDLNVQRKAIHELIQVMAELSPAAKTGKRKRSQMLFRG
Q: Which “Median Fluorescence Intensity (MFI) of PD-L1, change on stimulation” value ([10]; MDA-MB-231 cells) does the source give for B1 here?
A: increases

Q: What about the “CD44^hi CD24^lo (Frequency of parent, %)” value [10, 12] of the same molecule?
A: 77.7%

Q: And the “CD44^hi CD24^lo, PD-L1+ (Frequency of parent, %)” value [10, 12]?
A: 99.7%

Q: And the “Mean Fluorescence Intensity of Comp Pacific Blue-A PD-L1, CD44^hi CD24^lo, PD-L1+ subset” value [10, 12]?
A: 6173

Q: And the “Mean Fluorescence Intensity of Comp Pacific Blue-A PD-L1, PD-L1+ subset” value [10, 12]?
A: 6015

Q: What about the “PD-L1+ (Frequency of parent, %)” value [10, 12] of the same molecule?
A: 99.7%

Q: And the “CD44^hi CD24^lo (Frequency of parent, %)” value [10, 13]?
A: 98.9%

Q: What about the “CD44^hi CD24^lo, PD-L1+ (Frequency of parent, %)” value [10, 13] of the same molecule?
A: 99.7%

Q: And the “Mean Fluorescence Intensity of Comp Pacific Blue-A PD-L1, CD44^hi CD24^lo, PD-L1+ subset” value [10, 13]?
A: 6173

Q: And the “Mean Fluorescence Intensity of Comp Pacific Blue-A PD-L1, PD-L1+ subset” value [10, 13]?
A: 6133

Q: What about the “PD-L1+ (Frequency of parent, %)” value [10, 13] of the same molecule?
A: 99.7%

Q: What about the “frequency (%) of PD-L1+ cells, change on stimulation” value [11] of the same molecule?
A: not altered
